According to paper PMC11447181 (Nature Communications, 2024):
Entries after “also recorded” stand apart in the source; their conditions may differ.

Experiments:
hSLC19A3-wt = target: T1, hSLC19A3-wt (Homo sapiens, UniProt Q9BZV2); assay: nanoDSF thermal shift assay / apparent binding affinity, wildtype transporter; details: for thermal shift / interaction with hSLC19A3, in words: thermal shift screen at 20 μM and 200 μM compound
T1 construct: full-length, wildtype human SLC19A3; made in house; host or cells: Expi293F
Procedure: The thermal stability of the hSLC19A3 constructs and their binding affinities for small molecules were determined by nanoDSF, using a Prometheus NT.48 (NanoTemper Technologies). For sample preparation, the protein was diluted to a final concentration of 4 μM in SEC buffer and supplied with the respective compounds in a concentration range from 2 μM to 2 mM. Before measurement, the samples were incubated for 30 min at room temperature. Melting scans were performed at a temperature range from 20 to 95 °C with a temperature increment of 1 °C per minute. Thermal unfolding curves were recorded by measuring the ratio of the tryptophan-fluorescence at 350 nm (F350) and 330 nm (F330). The protein melting temperature (Tm) of a given sample was determined as the inflection point of the thermal unfolding curves, or the local maximum of its first derivative. The measured curves were analysed using the manufacturer’s software (PR.ThermControl, v 2.1.2, NanoTemper Technologies). Based on the determined Tm values, ligand induced thermal shifts (ΔTm) were determined as the difference between the melting temperature of the ligand-bound state (Tm) and the apo state (Tm^apo).
As R, Tstd and L are known and the ΔTm and Tm^apo are experimentally determined, non-linear curve fitting can be used to estimate Ea1 and Kd,app.

[1] = target: T2, hSLC19A3-wt overexpressed in Expi293F cells (Homo sapiens, UniProt Q9BZV2); assay: Mass spectrometry-based cellular thiamine-d3 uptake assay; assay type: cell-based; details: 200 μM compound, 2 μM thiamine-d3, 5 min, n = 3
T2 construct: full-length, wildtype human SLC19A3; expressed in transfected cells; host or cells: Expi293F
Procedure: The cells were then pelleted for 5 min at 250×g and resuspended in 1×PBS (pH 7.4) at a cell density of 2 million cells per mL. The cell suspension was subsequently transferred to a 96-deep well plate in three technical replicates per condition (n = 3, 1 mL per well, corresponding to 2 million cells per condition). 200 μM of the selected compounds were added to the respective wells and the cells were incubated for 1 min on a shaking platform. […] Afterwards, the cells were pelleted for 5 min at 500×g and washed 3× with 1 mL 1×PBS (pH7.4), before transferring them to a fresh 96-deep well plate. The cell pellets were stored at –70 °C. For the LC-MS/MS analysis, the samples were extracted by adding 500 µL of a mixture of H2O:MeOH:ACN (1:1:1, v/v), containing 5% (v/v) formic acid. After vortexing and ultrasonication in a water bath for 5 min at 4 °C, samples were incubated for 20 min at –20 °C. […] The supernatants were then transferred for LC-MS analysis, which was initiated within one hour after sample preparation. LC-MS/MS analysis was performed on a Vanquish UHPLC system coupled to an Orbitrap Exploris 240 high-resolution mass spectrometer (Thermo Fisher Scientific, MA, USA) in positive ESI (electrospray ionization) mode. Chromatographic separation was carried out on an Atlantis Premier BEH Z-HILIC column (Waters, MA, USA; 2.1 mm × 100 mm, 1.7 µm) at a flow rate of 0.25 mL/min. The mobile phase consisted of water:acetonitrile (9:1, v/v; mobile phase phase A) and acetonitrile:water (9:1, v/v; mobile phase B), which were modified with a total buffer concentration of 10 mM ammonium formate. The aqueous portion of each mobile phase was adjusted to pH 3.0 via addition of formic acid. The following gradient (8 min total run time including re-equilibration) was applied (time [min]/%B): 0/90, 3/85, 3.5/60, 4/60, 5/90, 8/90. Column temperature was maintained at 40 °C, the autosampler was set to 4 °C and sample injection volume was set to 3 µL. Analytes were recorded via a full scan with a mass resolving power of 120,000 over a mass range from 60 to 900 m/z (scan time: 100 ms, RF lens: 70%).
All experimental samples were measured in a randomized manner. Pooled quality control (QC) samples were prepared by mixing equal aliquots from each processed sample. Multiple QCs were injected at the beginning of the analysis in order to equilibrate the analytical system. A QC sample was analyzed after every 6th experimental sample to monitor instrument performance throughout the sequence. For determination of background signals and subsequent background subtraction, an additional processed blank sample was recorded. Data was processed using TraceFinder 5.1 and raw peak area data was exported for relative metabolite quantification.

SLC19A3 = details: cited from earlier work
[2] = target: glycosylation-free mutant of hSLC19A3 (hSLC19A3-gf) (human, UniProt Q9BZV2 1-496, Asn45 mutated to glutamine | Asn166 mutated to glutamine); assay: BLI
glycosylation-free mutant of hSLC19A3 (hSLC19A3-gf), sequence (Q9BZV2 other isoform, or with tags, fused parts or gaps with the stated changes): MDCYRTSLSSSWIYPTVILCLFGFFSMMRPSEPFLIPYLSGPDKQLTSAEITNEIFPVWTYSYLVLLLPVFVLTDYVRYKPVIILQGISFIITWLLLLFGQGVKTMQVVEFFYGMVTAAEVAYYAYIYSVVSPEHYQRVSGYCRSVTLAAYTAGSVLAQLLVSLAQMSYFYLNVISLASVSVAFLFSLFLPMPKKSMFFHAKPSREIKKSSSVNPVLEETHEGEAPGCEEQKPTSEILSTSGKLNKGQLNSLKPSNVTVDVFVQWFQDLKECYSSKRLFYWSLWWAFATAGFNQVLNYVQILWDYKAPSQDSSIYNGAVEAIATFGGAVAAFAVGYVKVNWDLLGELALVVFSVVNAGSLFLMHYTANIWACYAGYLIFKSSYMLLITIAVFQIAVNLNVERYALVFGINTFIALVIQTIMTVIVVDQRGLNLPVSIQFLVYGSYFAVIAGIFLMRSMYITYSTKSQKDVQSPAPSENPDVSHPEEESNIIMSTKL

T1 sequence (Q9BZV2 with tags, fused parts or gaps): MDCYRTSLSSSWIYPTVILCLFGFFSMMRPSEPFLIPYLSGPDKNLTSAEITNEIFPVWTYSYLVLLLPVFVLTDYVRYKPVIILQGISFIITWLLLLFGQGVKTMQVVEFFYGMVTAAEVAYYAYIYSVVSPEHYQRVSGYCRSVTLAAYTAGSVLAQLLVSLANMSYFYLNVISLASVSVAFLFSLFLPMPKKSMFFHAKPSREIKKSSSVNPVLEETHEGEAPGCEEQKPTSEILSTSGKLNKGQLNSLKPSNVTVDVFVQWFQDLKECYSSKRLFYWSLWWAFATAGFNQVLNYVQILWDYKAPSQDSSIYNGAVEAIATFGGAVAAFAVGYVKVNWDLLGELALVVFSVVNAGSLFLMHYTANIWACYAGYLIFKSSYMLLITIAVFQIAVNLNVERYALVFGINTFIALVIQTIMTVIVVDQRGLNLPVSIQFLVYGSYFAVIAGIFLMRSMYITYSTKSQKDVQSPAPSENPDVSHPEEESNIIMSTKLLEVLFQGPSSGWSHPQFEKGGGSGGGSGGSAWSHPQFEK
T2 sequence (Q9BZV2 with tags, fused parts or gaps): as above

Row | Molecule | thermal shift / interaction with hSLC19A3, in words (hSLC19A3-wt) | inhibition of thiamine uptake through hSLC19A3, in words [1] | further results
1 | CCN(CCO)CCCC(C)Nc1ccnc2cc(Cl)ccc12 (stereo not drawn) [hydroxychloroquine] | strongly stabilises hSLC19A3 |  | Kd (hSLC19A3-wt): 170 ± 55 nM
2 | CN(C)CCC=C1c2ccccc2COc2ccccc21 [doxepin] | destabilize the transporter in a concentration-dependent manner | inhibit its thiamine transport activity | 
3 | O=C(O)CCCC[C@@H]1SC[C@@H]2NC(=O)N[C@@H]21 [biotin] | does not interact with the transporter |  | 
4 | CN[C@H]1CC[C@@H](c2ccc(Cl)c(Cl)c2)c2ccccc21 [sertraline] |  |  | ΔTm (hSLC19A3-wt; at low micromolar concentrations, nanoDSF): 2.5 ± 0.4 °C
5 | CCc1nc(N)nc(N)c1-c1ccc(Cl)cc1 [pyrimethamine] |  |  | ΔTm at 20 µM (hSLC19A3-wt; read-out: ΔTm (thermostabilisation)): 9.3 ± 0.5 °C
6 | Cc1ccc(NC(=O)c2ccc(CN3CCN(C)CC3)cc2)cc1Nc1nccc(-c2cccnc2)n1 [imatinib] | strongly stabilized hSLC19A3 | interfered with thiamine-uptake through hSLC19A3; also recorded: inhibitory effect comparable to the one of fedratinib | Kd (hSLC19A3-wt): 4400 ± 500 nM
7 | Cc1ncc(C[n+]2csc(CCOP(=O)(O)O)c2C)c(N)n1 [thiamine-p, thiamine monophosphate] | strongly reduced affinity |  | 
8 | CN(C)CCCN1c2ccccc2CCc2ccccc21 [imipramine] | destabilize the transporter in a concentration-dependent manner | inhibit its thiamine transport activity | 
9 | CN(C)CCCC1(c2ccc(F)cc2)OCc2cc(C#N)ccc21 (stereo not drawn) [citalopram] | also interact with hSLC19A3 | interferes with thiamine uptake | 
10 | CN(C)CCC=C1c2ccccc2CCc2ccccc21 [amitriptyline] | destabilize the transporter in a concentration-dependent manner | inhibit its thiamine transport activity | 
11 | Cc1ncc(C[n+]2csc(CCO[P@](=O)(O)OP(=O)(O)O)c2C)c(N)n1 [thiamine-pp, thiamine pyrophosphate] | does not stabilise the transporter at all |  | 
12 | COc1cc(Cc2cnc(N)nc2N)cc(OC)c1OC [trimethoprim] |  |  | substrate status at the transporter (SLC19A3): xenobiotic substrates of the transporter
13 | Cc1nc(Nc2ncc(C(=O)Nc3c(C)cccc3Cl)s2)cc(N2CCN(CCO)CC2)n1 [dasatinib] |  | interfered with thiamine-uptake through hSLC19A3 | 
14 | Cc1ncc(C[n+]2csc(CCO)c2C)c(=O)[nH]1 [oxythiamine] | strongly decreased affinity and a lower thermostabilisation of the transporter; also recorded: stabilises the transporter only weakly |  | 
15 | COc1cc2ncnc(Nc3ccc(F)c(Cl)c3)c2cc1OCCCN1CCOCC1 [gefitinib] |  | interfered with thiamine-uptake through hSLC19A3 | 
16 | N#CCNC(=O)c1ccc(-c2ccnc(Nc3ccc(N4CCOCC4)cc3)n2)cc1 [momelotinib] | did not stabilise hSLC19A3 |  | 
17 | C[C@@H]1CCN(C(=O)CC#N)C[C@@H]1N(C)c1ncnc2[nH]ccc12 [tofacitinib] | stabilising hSLC19A3 | shows no inhibitory effect on thiamine transport | 
18 | CCCc1ncc(C[n+]2ccccc2C)c(N)n1 [amprolium] | strongly stabilised the transporter against heat unfolding in a concentration-dependent manner |  | 
19 | CCS(=O)(=O)N1CC(CC#N)(n2cc(-c3ncnc4[nH]ccc34)cn2)C1 [baricitinib] | did not stabilise hSLC19A3 |  | 
20 | nanobody Nb3.7 (VHH) VHH: QVQLVESGGGLVQPGDSLRLSCAASGRTFSINAMAWFRQAPGKEREYVAQISWTGGNTYYAESVKGRFTISRDNAKNTVYLQMISLKPEDTAVYYCAADSGGIRLGASRWNYWGQGTQVTVSS |  |  | Kd [2]: 110 nM
21 | nanobody Nb3.3 (VHH) VHH: QVQLVESGGGLVQAGDSLRLSCAASGRTFSNYYMAWFRQAPGKEREFVAAIRLSYGSTYYADSVRGRFTISKDNAKNTVNLRMNSLKSEDTAIYYCAAAEDRWALAVRTATTYNYWGQGTQVTVSS |  |  | Kd [2]: 200 nM
22 | nanobody Nb3.4 (VHH) VHH: QVQLVESGGGLVQAGDSLRLSCAASGLTFSRYDMAWFRQAPGKEREFVAAITWTGSITDYADSVKGRFTISRDNAKNTIYLQMNSLKPEDTAVYYCAAAQVPYGSTLKFNLRTLFGSWGQGTQVTVSS |  |  | Kd [2]: 280 nM
